Data taken from patent US11008295B2, “Compounds having antiinfective, antitumoral and antifungal activity” (priority 2017, dated 2021).
Read-outs that look alike come from different tables or passages of the source.

Experiments:
[1] = system: HIV; assay: microbe, parasite or virus in culture; type: cell-based; details: for safety index: anti-HIV activity/toxicity profile, MT-2 cells
Description: Assessment of in vitro antiviral activity is usually performed to estimate parameters of antiviral potency and efficacy represented by the percentage of inhibition of HIV activity or IC50. The assay utilized is based on the use of recombinant viruses in which the nef gene, […] for in vitro HIV replication, has been replaced by a Renilla reporter gene so that viral replication can be quantified directly (Garcia-Perez J et al, J Med Virol. 2007 February; 79(2):127-37). The assay was performed infecting MT-2 cells or PHA-activated PBMCs/IL-2 with viral supernatants obtained previously. The study was development in AIDS Immunopathology Unit, National Center of Microbiology, Institute of Health Carlos III, Majadahonda, Madrid, Spain.
All data are expressed as percentage relative to a control with DMSO at the same concentration. Antiviral activity and toxicity curves were performed to the compound at different concentrations.

[2] = system: C. guilliermondii; assay: Antifungal disk diffusion susceptibility test (CLSI M44); type: cell-based
Experimental: (§1) Filamentous fungi and yeasts strains, from clinical origin, were supplied by Microbiology Service from The Princess Hospital, Madrid. They are detailed in Table III.
(§2) Filamentous fungi and yeast cells suspensions in distilled water was prepared from a culture of 24-48 h, depending on species, in Sabouraud agar. Each suspension was adjusted to a fixed size inoculum of 1-5×10^8 CFU/ml with a spectrophotometer (Ferraro, M J National Committee for Clinical Laboratory Standards. 2000).
(§3) Antifungal susceptibility tests were developed following the standardized methodology detailed in document CLSI: M44-4: Method for Antifungal Disk diffusion susceptibility testing of yeasts consisting of disk diffusion on agar Muller-Hinton (supplemented with 2% glucose).

[3] = system: C. lusitaniae; assay: as above; type: cell-based
Experimental: as §1, §2, §3

[4] = system: C. glabrata; assay: as above; type: cell-based
Experimental: as §1, §2, §3

[5] = system: A. terreus; assay: as above; type: cell-based
Experimental: as §1, §2, §3

[6] = system: A. niger; assay: as above; type: cell-based
Experimental: as §1, §2, §3

[7] = system: C. albicans; assay: as above; type: cell-based
Experimental: as §1, §2, §3

[8] = system: A. flavus; assay: as above; type: cell-based
Experimental: as §1, §2, §3

[9] = system: C. tropicalis; assay: as above; type: cell-based
Experimental: as §1, §2, §3

[10] = system: A. fumigatus; assay: as above; type: cell-based
Experimental: as §1, §2, §3

[11] = system: CAL33 cell line (head and neck); assay: MTT assay, antitumor activity; type: cell-based
[12] = system: T. pulmonis; assay: Kirby-Bauer disk diffusion susceptibility test; type: cell-based, Tsukamurella pulmonis; details: T. pulmonis; zone of inhibition; 200 μg/disc
Experimental: (§4) Bacterial strains, from clinical origin, were supplied by the National Center for Microbiology, Institute of Health Carlos III (Majadahonda, Madrid). They are detailed in Table I.
(§5) Bacterial cells suspension in sterile saline was prepared from a culture of 24-72 h, depending on bacterial species, in Mueller-Hinton Agar with 5% sheep blood. Each suspension was adjusted to a fixed size inoculum of 1-5×10^8 CFU/ml with a spectrophotometer (Ferraro, M J National Committee for Clinical Laboratory Standards. 2000).
(§6) Kirby-Bauer disk diffusion susceptibility test protocol was utilized to determine the sensitivity or resistance of pathogenic bacteria against the compounds and others antibiotics. The absence of growth around the disks is an indirect measure of the ability of this compound to inhibit an organism (Kirby, W. et al., Antibiotics Annu. 1956-1957:892). After 18 to 72 hours of incubation at […], with or without CO2, under aerobic or anaerobic conditions, depending on the bacterial species, halo of growth inhibition were obtained and evaluated.
(§7) Interpretation of susceptibility and resistance was based on the presence or absence of a zone of inhibition surrounding the disk. Kirby-Bauer disk diffusion susceptibility test is a common method which uses antibiotic-impregnated wafers to test whether bacteria are affected by antibiotics. The size of the zone of inhibition depends on how effective the antibiotic is at stopping the growth of the bacterium. A stronger antibiotic will create a larger zone, because a lower concentration of the antibiotic is enough to stop growth.

[13] = system: B. cereus; assay: Kirby-Bauer disk diffusion susceptibility test; type: cell-based, Bacillus cereus; details: B. cereus; zone of inhibition; 200 μg/disc
Experimental: as §4, §5, §6, §7

[14] = system: C. parapsilopsis; assay: Antifungal disk diffusion susceptibility test (CLSI M44); type: cell-based, C. parapsilosis
Experimental: as §1, §2, §3

[15] = Cellular viability (CellTiter Glo) in parallel to the anti-HIV assay; type: cell-based; details: human; concentration required to kill 50% of cells; MT-2 cells; read-out: CC50 VIH MT-2
Experimental: All assays for assessing anti-HIV activity were taken in parallel to determine cellular viability of the culture in the presence or absence of different concentrations of the isolated molecule. It was followed exactly the same methodology as in the anti-HIV assay except with the addition of complete DMEM medium instead of supernatant viral, in the same proportion, and the detection of the viability was performed with the viability detection kit CellTiter Glo (Promega), following manufacturer instructions. Viability is directly proportional to the luciferase activity obtained. All data are expressed as percentage relative to a control with DMSO at the same concentration. Antiviral activity and toxicity curves were performed to the compound at different concentrations.

[16] = system: E. coli; assay: Kirby-Bauer disk diffusion susceptibility test; type: cell-based; details: E. coli; zone of inhibition; 200 μg/disc
Experimental: as §4, §5, §6, §7

[17] = system: M. chelonae; assay: Kirby-Bauer disk diffusion susceptibility test; type: cell-based; details: M. chelonae; zone of inhibition; 200 μg/disc
Experimental: as §4, §5, §6, §7

[18] = system: M. fortuitum; assay: Kirby-Bauer disk diffusion susceptibility test; type: cell-based; details: M. fortuitum; zone of inhibition; 200 μg/disc
Experimental: as §4, §5, §6, §7

[19] = system: E. faecalis; assay: Kirby-Bauer disk diffusion susceptibility test; type: cell-based; details: E. faecalis; zone of inhibition; 200 μg/disc
Experimental: as §4, §5, §6, §7

[20] = system: N. cyriacigeorgica; assay: Kirby-Bauer disk diffusion susceptibility test; type: cell-based; details: N. cyriacigeorgica; zone of inhibition; 200 μg/disc
Experimental: as §4, §5, §6, §7

[21] = system: S. aureus; assay: Kirby-Bauer disk diffusion susceptibility test; type: cell-based; details: S. aureus; zone of inhibition; 200 μg/disc
Experimental: as §4, §5, §6, §7

[22] = system: E. faecium; assay: Kirby-Bauer disk diffusion susceptibility test; type: cell-based; details: E. faecium; zone of inhibition; 200 μg/disc
Experimental: as §4, §5, §6, §7

[23] = system: P. aeruginosa; assay: Kirby-Bauer disk diffusion susceptibility test; type: cell-based; details: P. aeruginosa; zone of inhibition; 200 μg/disc
Experimental: as §4, §5, §6, §7

[24] = system: S. epidermidis; assay: Kirby-Bauer disk diffusion susceptibility test; type: cell-based; details: S. epidermidis; zone of inhibition; 200 μg/disc
Experimental: as §4, §5, §6, §7

[25] = system: M. abscessus; assay: Kirby-Bauer disk diffusion susceptibility test; type: cell-based, Mycobacterium abscessus; details: M. abscessus; zone of inhibition; 200 μg/disc
Experimental: as §4, §5, §6, §7

[26] = system: HT29 cell line (colon); assay: MTT assay, antitumor activity; type: cell-based
[27] = system: N. carnea; assay: Kirby-Bauer disk diffusion susceptibility test; type: cell-based, Nocardia carnea; details: N. carnea; zone of inhibition; 200 μg/disc
Experimental: as §4, §5, §6, §7

[28] = system: MCF7 cell line (breast); assay: MTT assay, antitumor activity; type: cell-based
[29] = system: A. baumannii; assay: Kirby-Bauer disk diffusion susceptibility test; type: cell-based; details: A. baumannii; zone of inhibition; 200 μg/disc
Experimental: as §4, §5, §6, §7

[30] = Human immunodeficiency virus 1, MT2
[31] = Human immunodeficiency virus 1, MT2, read-out: IC50 VIH MT-2

CCCCCC1=NN(C(=O)CCOC(=O)CCC(=O)O)OC(CCCCC)C1 (centres unmarked) [DOXA-1]
IC50 [1, 30]: 130 nM | IC50 [1, 31]: 130 nM | safety index [1]: more than 60 | Activity (mm), 200 μg/disc [2]: 38 mm | Activity (mm), 200 μg/disc [3]: 38 mm | Activity (mm), 200 μg/disc [4]: 30 mm | Activity (mm), 200 μg/disc [5]: 18 mm | Activity (mm), 200 μg/disc [6]: 18 mm | Activity (mm), 200 μg/disc [7]: 25 mm | Activity (mm), 200 μg/disc [8]: 20 mm | Activity (mm), 200 μg/disc [9]: 30 mm | Activity (mm), 200 μg/disc [10]: 15 mm | Inhibition of cell line ([11]; 750 nM): moderate inhibition | Activity (mm), 200 μg/disc [12]: 34 mm | Activity (mm), 200 μg/disc [13]: 36 mm | Activity (mm), 200 μg/disc [14]: 30 mm | CC50 [15]: 8200 nM | Activity (mm), 200 μg/disc [16]: 9 mm | Activity (mm), 200 μg/disc [17]: 34 mm | Activity (mm), 200 μg/disc [18]: 30 mm | Activity (mm), 200 μg/disc [19]: 34 mm | Activity (mm), 200 μg/disc [20]: 35 mm | Activity (mm), 200 μg/disc [21]: 20 mm | Activity (mm), 200 μg/disc [22]: 34 mm | Activity (mm), 200 μg/disc [23]: 9 mm | Activity (mm), 200 μg/disc [24]: 22 mm | Activity (mm), 200 μg/disc [25]: 32 mm | Inhibition of cell line ([26]; 750 nM): moderate inhibition | Activity (mm), 200 μg/disc [27]: 40 mm

CCCCCC1=NN(C(=O)CCOC(C)=O)OC(CCCCC)C1 (centres unmarked) [DOXA-2]
IC50 [1, 30]: 84 nM | IC50 [1, 31]: 84 nM | safety index [1]: about 100 | Activity (mm), 200 μg/disc [2]: 28 mm | Activity (mm), 200 μg/disc [3]: 20 mm | Activity (mm), 200 μg/disc [4]: 18 mm | Activity (mm), 200 μg/disc [5]: 40 mm | Activity (mm), 200 μg/disc [6]: 40 mm | Activity (mm), 200 μg/disc [7]: 18 mm | Activity (mm), 200 μg/disc [8]: 38 mm | Activity (mm), 200 μg/disc [9]: 20 mm | Activity (mm), 200 μg/disc [10]: 30 mm | Concentration of optimal inhibition [11]: 100 nM | Concentration at which proliferation was inhibited ([11]; 10-750 nM, 24, 48 and 72 hours): 50 nM | Activity (mm), 200 μg/disc [12]: 41 mm | Concentration at which proliferation was inhibited [28]: 250 nM | Activity (mm), 200 μg/disc [13]: 20 mm | Activity (mm), 200 μg/disc [14]: 18 mm | CC50 [15]: 7720 nM | Activity (mm), 200 μg/disc [16]: 9 mm | Activity (mm), 200 μg/disc [17]: 30 mm | Activity (mm), 200 μg/disc [18]: 25 mm | Activity (mm), 200 μg/disc [20]: 26 mm | Activity (mm), 200 μg/disc [21]: 10 mm | Activity (mm), 200 μg/disc [29]: 9 mm | Activity (mm), 200 μg/disc [23]: 9 mm | Activity (mm), 200 μg/disc [24]: 10 mm | Activity (mm), 200 μg/disc [25]: 25 mm | Concentration of best inhibition [26]: 50 nM | Activity (mm), 200 μg/disc [27]: 25 mm
